“Also recorded” adds a separate entry of the source. Bounds are passed on as bounds.

For test [1], the system named is freshly isolated murine distal total epithelial cells. The experiment in a line: 3D organoid culture of freshly isolated murine distal total epithelial cells. The format is cell-based. The conditions noted are these: for % colony forming efficiency: freshly isolated murine lung epithelial cells, addition to the culture medium (FIG. 3). The source says:
(§1) FIG. 1. Experimental design. Preconditioning of donor cells, including addition of small molecules such as ROCK inhibitor, pifithrin α, or combined together, and generation of organoids.
FIG. 3. […] Addition of the TGF-β inhibitor, SB 431542 to the culture medium increases the % colony forming efficiency of freshly isolated murine lung epithelial cells. Addition of Pifithrin α causes an increase in organoids size, while addition of ROCKi causes an increase in the colony forming efficiency.
FIG. 13. Effect of p53 and ROCKi inhibition on murine freshly isolated distal total epithelial cells in (+SB431542). Addition of both ROCKi and Pifithrin alpha (in presence of SB431542) increases the colony forming efficiency of freshly isolated murine distal total epithelial cells (isolated from the lung without trachea). […] Pifithrin alpha also causes an increase in the size of the organoids (C). […] The drop in mean diameter of the Pifithrin alpha+ROCKi group is likely due to space constraints because of the large number of organoids per well.
Further described herein is a cell culture including a quantity of human stem cells, or stem cell derived cells in a cell culture media including at least one molecule including: a RHO-kinase (ROCK) inhibitor, SMAD inhibitor, and p53 inhibitor. In other embodiments, the RHO-kinase inhibitor is Y27632 and the p53 inhibitor is Pifithrin α. In other embodiments, the stem cells are adult stem cells. In other embodiments, the stem cell derived cells are lung epithelial cells. In various embodiments, the aforementioned inhibitors are at a concentration of 0.1-1 uM, 1-5 uM, 5-10 uM, 10-25 uM, 25-50 uM, or 50 uM or more. In various embodiments, the p53 inhibitor is Pifithrin-alpha. For example, this includes a media formulated as follows: 5 mL FBS, 500 uL ITS (100×), 50 uL Fungizone, 500 uL Pen/Strep (100×), DMEM/F12 up to 50 mL, 5 uL SB431542, Pifithrin-alpha 10 uM, ROCKi (Y-27632 dihydrochloride)—10 uM. Also described herein is a quantity of organoids including cells made by the aforementioned methods. In various embodiments, the organoids include proximal and/or distal cells. In various embodiments, the distal cells are alveolar type II progenitors and/or Scgb1a1 positive club progenitor cells.

Test [2] deals with murine pre-cultured distal total epithelial cells. In words: 3D organoid culture of murine distal total epithelial cells pre-cultured 24 hrs on collagen coated plates. The format is cell-based. The conditions noted are these: pre-cultured on collagen coated plates for 24 hrs after isolation, +SB431542; dihydrochloride. The source says:
FIG. 4. Effect of pre-culturing—Day 3. Pre-culturing cells on collagen coated plates for 24 hrs after initial isolation increases the rate of organoid formation, with organoids being visible as early as day 3 in culture.
FIG. 5. Effect of pre-culturing—Day 8. Addition of Pifithrin α causes an increase in organoids size, while addition of ROCKi causes an increase in the colony forming efficiency. This effect is more pronounced when cells are pre-cultured for 24 hrs on collagen coated plates after initial isolation.
FIG. 14. Effect of inhibitors on murine pre-cultured distal total epithelial cells in (+SB431542). Addition Pifithrin alpha increases organoid size while addition of ROCKi increases the colony forming efficiency when murine distal total epithelial cells (isolated from the lung without trachea) are pre-cultured on collagen coated plates for 24 hrs prior after initial isolation. The effect on size is more pronounced when cells are precultured for 24 hrs on collagen coated plates after initial isolation. The drop in CFE in the Pifithrin alpha+ROCKi group is likely due space and nutrient availability constraints due to the large number of organoids per well.
(§2) ROCKi increases the colony forming efficiency when murine distal total epithelial cells (isolated from the lung without trachea) are pre-cultured on collagen coated plates for 24 hrs prior after initial isolation. The effect on size is more pronounced when cells are precultured for 24 hrs on collagen coated plates after initial isolation. The drop in CFE in the Pifithrin alpha+ROCKi group is likely due space and nutrient availability constraints due to the large number of organoids per well. Addition of both ROCKi and Pifithrin alpha (in presence of SB431542) increases the colony forming efficiency of freshly isolated alveolar type II cells (regional stem cells which maintain the epithelium of the air sacs in the lung). The effect is synergistic for their combined use, similar to that seen for total distal epithelial cells in the previous figures.

For test [3], the system named is freshly isolated alveolar type II cells. The experiment in a line: Organoid culture of lineage labelled murine alveolar type II cells. The following applies: GFP+ alveolar type II cells, in presence of SB431542. The format is cell-based.
Text: FIG. 15. Effect of ROCK and P53 inhibition on lineage labelled murine alveolar type II cells. GFP^+ alveolar type II cells were isolated from tamoxifen treated SPC-CreER/ROSARG mice. Addition of both ROCKi and Pifithrin alpha (in presence of SB431542) increases the colony forming efficiency of freshly isolated alveolar typeII cells (regional stem cells which maintain the epithelium of the air sacs in the lung). The effect is synergistic for their combined use, similar to that seen for total distal epithelial cells in the previous figures.
as §2

In test [4] the test system is freshly isolated club cells. In words: Organoid culture of lineage labelled murine club cells. The format is cell-based. The following applies: GFP+ club cells, in presence of SB431542. The source says:
FIG. 17. Effect of ROCK and P53 inhibition on lineage labelled murine club cells. GFP^+ club cells were isolated from tamoxifen treated Scgb1a1-CreER/ROSARG mice. Addition of ROCKi (in presence of SB431542) increases the colony forming efficiency of freshly isolated club cells (regional stem cells which maintain certain cell types in the bronchiolar epithelium) whereas addition of Pifithrin alpha (in presence of SB431542) increases the size of Scgb1a1-derived organoids.
(§3) Distal progenitor cells were cultured as 3D organoids for 14 days in presence of Pifithrin-alpha, ROCKi and SB431542 followed by culture for 7 days in media without all three inhibitors. […] Addition of ROCKi (in presence of SB431542) increases the colony forming efficiency of freshly isolated club cells (regional stem cells which maintain certain cell types in the bronchiolar epithelium) whereas addition of Pifithrin alpha (in presence of SB431542) increases the size of Scgb1a1-derived organoids. Addition of both ROCKi (in presence of SB431542) increases the colony forming efficiency of freshly isolated murine proximal total epithelial cells (isolated from the murine trachea).

The test system of test [5] is freshly isolated murine proximal total epithelial cells. The experiment in a line: Organoid culture of murine tracheal progenitor (basal) cells. The format is cell-based. How it is done: FIG. 18. Effect of ROCK and P53 inhibition on murine tracheal progenitor (basal) cells. Addition of both ROCKi (in presence of SB431542) increases the colony forming efficiency of freshly isolated murine proximal total epithelial cells (isolated from the murine trachea).
as §3

The test system of test [6] is distal progenitor cells. In words: Differentiation potential of distal progenitors after 3D organoid culture with inhibitors. The format is cell-based. The conditions noted are these: 14 days with Pifithrin-alpha, ROCKi and SB431542, then 7 days without inhibitors, PDPN and SPC staining. The procedure:
FIG. 16. […] Distal progenitor cells were cultured as 3D organoids for 14 days in presence of Pifithrin-alpha, ROCKi and SB431542 followed by culture for 7 days in media without all three inhibitors. […] DAPI (blue) is a nuclear stain.
as §3

Test [7] deals with freshly isolated cells. In words: Freshly isolated cells cultured with small molecules at different time points (proliferation). The format is cell-based. The following applies: different time points (FIG. 2).
Text: as §1
FIG. 2. Freshly isolated cells cultured with small molecules at different time points.

The subject of test [8] is human bronchial epithelial stem cells. The following applies: inhibition of ROCK1 and 2; cited from earlier work.
The test system of test [9] is Scgb1a1 immunoreactive cells. In words: Club cell ablation by gancyclovir in Scgb1a1-HSVtk transgenic mice. The format is in vivo. The following applies: 12.5 mg total delivered dose through miniosmotic pump, 7 days post-treatment. The procedure:
FIG. 9. Orthotopic cell transplantation. Scgb1a1-HSVtk transgenic mice were exposed to gancyclovir delivered through miniosmotic pump and club cell ablation monitored by immunofluorescence. A dose of 12.5 mg gancyclovir (total delivered dose) led to >90% loss of Scgb1a1 immunoreactive cells 7 days post-treatment (red immunofluorescence in panel A). Total lung cells were isolated from ROSA-GFP mice and 1×10^6 cells transplanted into lungs of gancyclovir-treated mice that received i.t. chlodronate-containing liposomes for depletion of macrophages. Transplanted cells are shown in green in B and C, with cell type-specific markers shown by red immunofluorescence in C. Transplantation of 1×10^6 ROSA-mT lung cells (total cells following depletion of CD45+ fraction) into recipient lung tissue pre-conditioned by 6 Gy X-Rays led to efficient engraftment as shown by light sheet microscopy 2 weeks post transplant (D). The Inventors' initial efforts to develop a protocol for functional engraftment of transplanted epithelial stem cells involved sequential ablation of club cells through delivery of gancyclovir to Scgb1a1-HSVtk trangenic mice followed by delivery of liposome encapsulated chlodronate to deplete macrophages (FIG. 9A-C). […] Difficulties with this model were lack of translatability and poor survival of recipient mice. […]

Test [10] has as its system airway epithelial cells. The experiment in a line: In vitro clonogenic potential and colony-forming ability with Rho kinase inhibitor HA1077. The conditions noted are these: FIG. 11. The format is cell-based. From the text:
FIG. 11. […] P53 and ROCK regulate epithelial colony-forming ability and “stemness”. Tp53 (p53) is a tumor suppressor that is one of the most commonly mutated genes in cancer. In addition to its classical functions of regulating cell fate following cellular stress, p53 regulates migration, autophagy, metabolism, and tumor microenvironment signaling. p53 regulates self-renewal and terminal differentiation of both neural and mammary stem cells in vitro, and of hematopoietic and kidney stem/progenitor cells in vivo. In the Inventors' previous work the Inventors have shown that loss of p53 function promotes stem cell renewal in vivo and leads to a dramatic increase in colony-forming epithelial progenitor cells in vitro. The impact of p53 loss-of-function on airway epithelial in vitro colony-forming ability can be phenocopied by pharmacologic inhibition of Rho kinase (ROCK). Experiments proposed in the Inventors' application will use transient pharmacologic modulation of ROCK and p53 as tools to enhance survival and “sternness” of transplanted epithelial cells and overcome the need for co-transplanted structural lung cells for their efficient engraftment.

Regarding `C[C@@H](N)[C@H]1CC[C@H](C(=O)Nc2ccncc2)CC1.Cl.Cl` [ROCKi, Y-27632 dihydrochloride], the colony forming efficiency entry in [1] (freshly isolated cells, in presence of SB431542 (FIG. 13)) was “increases”; in test [2] it was “increase”; in test [3], “increases”; in test [4], “increases”; in test [5] (cells isolated from the murine trachea, in presence of SB431542) it was “increases”. For the same molecule, the “survival and proliferation of the stem cells (inferred from CFE and organoid size)” value in test [1] (freshly isolated distal cells, FIG. 13) is on record as “increase survival”. Moreover, the “% colony forming efficiency” value in [1] was “increase”. In addition, the “size of the alveolar organoids” value in test [3] was “does not increase”. Moreover, the “survival of proximal and distal progenitors (inferred from colony forming ability)” value in test [5] (comparison of proximal and distal progenitor cell types, dihydrochloride) was “increase survival of both proximal and distal progenitors; also recorded: increases survival”. For the same molecule, the differentiation potential entry in [6] (dihydrochloride) is recorded as “did not alter; also recorded: do not alter”. Moreover, in test [7], the proliferation of cells result is “have an effect on proliferation”. Further, the “survival and expansion of human bronchial epithelial stem cells” value in [8] is “promote survival and expansion”.
Turning to `Nc1nc(O)c2ncn(COC(CO)CO)c2n1` [gancyclovir], the “loss of Scgb1a1 immunoreactive cells” value in test [9] is on record as over 90%.
With `NC(=O)c1ccc(-c2nc(-c3ccc4c(c3)OCO4)c(-c3ccccn3)[nH]2)cc1` [SB 431542], the “% colony forming efficiency” value in [1] was “increases”. Further, the differentiation potential result in test [6] is recorded as “did not alter”.
For the molecule `O=S(=O)(c1cccc2cnccc12)N1CCCNCC1` [HA1077], in [10], the colony-forming ability result is on record as “without altering” and the “in vitro clonogenic potential” value is on record as “increases”.

These data come from patent US20210147811A1, “METHODS FOR IN VITRO EXPANSION OF ADULT TISSUE STEM CELLS” (CEDARS-SINAI MEDICAL CENTER, priority 2018, published 2021).
